Laboratory results: PMC8708751, “Hit Identification of a Novel Quinazoline Sulfonamide as a Promising EphB3 Inhibitor: Design, Virtual Combinatorial Library, Synthesis, Biological Evaluation, and Docking Simulation Studies” (Pharmaceuticals, 2021)

Target: T1, EphB2 (Homo sapiens, UniProt P29323)
T1 construct: purchased Reaction Biology Co. (Kinase HotSpot service)
T1 sequence (P29323 19-1055): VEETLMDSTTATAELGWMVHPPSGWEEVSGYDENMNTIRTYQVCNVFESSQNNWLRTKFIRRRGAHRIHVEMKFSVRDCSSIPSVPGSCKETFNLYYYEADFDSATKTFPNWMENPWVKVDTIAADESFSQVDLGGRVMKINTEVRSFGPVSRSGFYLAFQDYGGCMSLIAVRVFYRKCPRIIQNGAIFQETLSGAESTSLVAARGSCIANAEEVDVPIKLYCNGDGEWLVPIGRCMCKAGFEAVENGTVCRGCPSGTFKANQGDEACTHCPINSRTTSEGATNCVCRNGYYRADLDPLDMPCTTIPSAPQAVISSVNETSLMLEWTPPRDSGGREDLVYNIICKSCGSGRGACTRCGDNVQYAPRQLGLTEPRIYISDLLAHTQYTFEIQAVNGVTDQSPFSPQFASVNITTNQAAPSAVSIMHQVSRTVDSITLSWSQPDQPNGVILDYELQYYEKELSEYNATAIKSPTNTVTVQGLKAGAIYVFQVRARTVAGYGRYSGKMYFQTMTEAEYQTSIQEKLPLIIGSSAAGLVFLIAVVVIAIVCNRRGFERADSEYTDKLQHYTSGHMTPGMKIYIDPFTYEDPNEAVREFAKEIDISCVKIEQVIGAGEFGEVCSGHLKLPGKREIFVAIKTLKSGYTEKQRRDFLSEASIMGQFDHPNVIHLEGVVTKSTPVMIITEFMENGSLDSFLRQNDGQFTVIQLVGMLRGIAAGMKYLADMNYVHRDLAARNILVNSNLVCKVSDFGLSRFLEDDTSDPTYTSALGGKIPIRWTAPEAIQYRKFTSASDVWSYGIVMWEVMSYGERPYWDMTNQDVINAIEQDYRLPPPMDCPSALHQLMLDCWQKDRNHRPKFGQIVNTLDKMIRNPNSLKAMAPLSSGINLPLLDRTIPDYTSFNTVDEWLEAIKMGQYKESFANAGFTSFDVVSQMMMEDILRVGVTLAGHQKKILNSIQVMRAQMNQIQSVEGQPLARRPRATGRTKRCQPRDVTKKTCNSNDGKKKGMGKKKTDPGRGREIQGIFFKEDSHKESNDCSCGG
Experiment: Kinase panel assay, EphB2
Assay type: biochemical
Experimental: […]. A further dose-dependent assay was conducted to validate the selectivity of compound 4c over the EphB isoforms. […]. Accordingly, it could be considered as a promising selective inhibitor for EphB3 isoform.
The screening of the tested compounds was performed using the Kinase HotSpot^SM service from Reaction Biology Co. (http://www.reactionbiology.com, accessed on 25 September 2021). The HotSpot assay platform contains specific kinase/substrate pairs along with required cofactors. Base reaction buffer: 20 mM Hepes (pH 7.5), 10 mM MgCl2, 1 mM EGTA, 0.02% Brij35, 0.02 mg/mL BSA, 0.1 mM Na3VO4, 2 mM DTT, 1% DMSO. The tested compounds were dissolved in 100% DMSO to specific concentration. The serial dilution was conducted by Integra Viaflo Assist in DMSO (Sigma-Aldrich, Burlington, MA, USA). The reaction mixture containing the examined compound and 33P-ATP was incubated at room temperature for 2 h, and radioactivity was detected by filter-binding method. Kinase activity data were expressed as the percent remaining kinase activity in test samples compared to vehicle (dimethyl sulfoxide) reactions. IC50 values and curve fits were obtained using Prism (GraphPad Software, San Diego, CA, USA).

NS(=O)(=O)c1ccc(Nc2ncnc3ccc(-c4cccc(O)c4)cc23)cc1 [Compound 4c, 4-((6-(3-Hydroxyphenyl)quinazolin-4-yl)amino)benzenesulfonamide]
inhibition at 10 µM (EphB2, 10 µM, read-out: Average % Enzyme Inhibition (Relative to DMSO Controls) at 10 µM): 76.32 ± 0.61%
IC50 (EphB2, dose-dependent assay): 3.95 µM
